In ChEMBL document CHEMBL3045611, “Identification of the G143A mutation associated with QoI resistance in Cercospora beticola field isolates from Michigan, United States” (Pest Manag Sci, 2013):
Values after ≈ are worked out from the molar mass of the structure shown.

What was measured:
Format in all cases: functional, organism-based
[1] = tested on: Cercospora beticola; experiment: Antifungal activity against Cercospora beticola isolate 11-1036-2 expressing cytb with alanine at codon 143 assessed as reduction in spore germination
[2] = tested on: Cercospora beticola; experiment: Antifungal activity against Cercospora beticola isolate 11-1026-1 expressing cytb with alanine at codon 143 assessed as reduction in spore germination
[3] = tested on: Cercospora beticola; experiment: Antifungal activity against Cercospora beticola isolate 11-1042-2 expressing cytb with alanine at codon 143 assessed as reduction in spore germination
[4] = tested on: Cercospora beticola; experiment: Antifungal activity against Cercospora beticola isolate 11-1028-2 expressing cytb with alanine at codon 143 assessed as reduction in spore germination
[5] = tested on: Cercospora beticola; experiment: Antifungal activity against Cercospora beticola isolate 98-12-M expressing cytb with glycine at codon 143 assessed as reduction in spore germination
[6] = tested on: Cercospora beticola; experiment: Antifungal activity against Cercospora beticola isolate 11-1009-1 expressing cytb with alanine at codon 143 assessed as reduction in spore germination
[7] = tested on: Cercospora beticola; experiment: Antifungal activity against Cercospora beticola isolate 11-1038-2 expressing cytb with alanine at codon 143 assessed as reduction in spore germination
[8] = tested on: Cercospora beticola; experiment: Antifungal activity against Cercospora beticola isolate 11-1008-1 expressing cytb with alanine at codon 143 assessed as reduction in spore germination
[9] = tested on: Cercospora beticola; experiment: Antifungal activity against Cercospora beticola isolate 98-150-M expressing cytb with glycine at codon 143 assessed as reduction in spore germination
[10] = tested on: Cercospora beticola; experiment: Antifungal activity against Cercospora beticola isolate 98-10-M expressing cytb with glycine at codon 143 assessed as reduction in spore germination
[11] = tested on: Cercospora beticola; experiment: Antifungal activity against Cercospora beticola isolate 11-1005-2 expressing cytb with alanine at codon 143 assessed as reduction in spore germination
[12] = tested on: Cercospora beticola; experiment: Antifungal activity against Cercospora beticola isolate 11-1028-1 expressing cytb with alanine at codon 143 assessed as reduction in spore germination
[13] = tested on: Cercospora beticola; experiment: Antifungal activity against Cercospora beticola isolate 11-1006-2 expressing cytb with alanine at codon 143 assessed as reduction in spore germination
[14] = tested on: Cercospora beticola; experiment: Antifungal activity against Cercospora beticola isolate 11-1016-1 expressing cytb with alanine at codon 143 assessed as reduction in spore germination
[15] = tested on: Cercospora beticola; experiment: Antifungal activity against Cercospora beticola isolate 11-1042-1 expressing cytb with alanine at codon 143 assessed as reduction in spore germination
[16] = tested on: Cercospora beticola; experiment: Antifungal activity against Cercospora beticola isolate 11-1027-1 expressing cytb with alanine at codon 143 assessed as reduction in spore germination
[17] = tested on: Cercospora beticola; experiment: Antifungal activity against Cercospora beticola isolate 99-233-3-M expressing cytb with glycine at codon 143 assessed as reduction in spore germination
[18] = tested on: Cercospora beticola; experiment: Antifungal activity against Cercospora beticola isolate 11-1046-2 expressing cytb with alanine at codon 143 assessed as reduction in spore germination
[19] = tested on: Cercospora beticola; experiment: Antifungal activity against Cercospora beticola isolate 98-9-M expressing cytb with glycine at codon 143 assessed as reduction in spore germination
[20] = tested on: Cercospora beticola; experiment: Antifungal activity against Cercospora beticola isolate 11-1014-1 expressing cytb with alanine at codon 143 assessed as reduction in spore germination
[21] = tested on: Cercospora beticola; experiment: Antifungal activity against Cercospora beticola isolate 11-1027-2 expressing cytb with alanine at codon 143 assessed as reduction in spore germination
[22] = tested on: Cercospora beticola; experiment: Antifungal activity against Cercospora beticola isolate 11-1044-1 expressing cytb with alanine at codon 143 assessed as reduction in spore germination
[23] = tested on: Cercospora beticola; experiment: Antifungal activity against Cercospora beticola isolate 11-1015-1 expressing cytb with alanine at codon 143 assessed as reduction in spore germination
[24] = tested on: Cercospora beticola; experiment: Antifungal activity against Cercospora beticola isolate 11-1007-2 expressing cytb with alanine at codon 143 assessed as reduction in spore germination
[25] = tested on: Cercospora beticola; experiment: Antifungal activity against Cercospora beticola isolate 11-1005-1 expressing cytb with alanine at codon 143 assessed as reduction in spore germination
[26] = tested on: Cercospora beticola; experiment: Antifungal activity against Cercospora beticola isolate 99-521-29-M expressing cytb with glycine at codon 143 assessed as reduction in spore germination
[27] = tested on: Cercospora beticola; experiment: Antifungal activity against Cercospora beticola isolate 11-1007-1 expressing cytb with alanine at codon 143 assessed as reduction in spore germination
[28] = tested on: Cercospora beticola; experiment: Antifungal activity against Cercospora beticola isolate 11-1043-2 expressing cytb with alanine at codon 143 assessed as reduction in spore germination
[29] = tested on: Cercospora beticola; experiment: Antifungal activity against Cercospora beticola isolate 11-1040-1 expressing cytb with alanine at codon 143 assessed as reduction in spore germination
[30] = tested on: Cercospora beticola; experiment: Antifungal activity against Cercospora beticola isolate 98-19-M expressing cytb with glycine at codon 143 assessed as reduction in spore germination
[31] = tested on: Cercospora beticola; experiment: Antifungal activity against Cercospora beticola isolate 11-1045-2 expressing cytb with alanine at codon 143 assessed as reduction in spore germination
[32] = tested on: Cercospora beticola; experiment: Antifungal activity against Cercospora beticola isolate 11-1022-1 expressing cytb with alanine at codon 143 assessed as reduction in spore germination
[33] = tested on: Cercospora beticola; experiment: Antifungal activity against Cercospora beticola isolate 11-1015-2 expressing cytb with alanine at codon 143 assessed as reduction in spore germination
[34] = tested on: Cercospora beticola; experiment: Antifungal activity against Cercospora beticola isolate 11-1039-1 expressing cytb with alanine at codon 143 assessed as reduction in spore germination
[35] = tested on: Cercospora beticola; experiment: Antifungal activity against Cercospora beticola isolate 11-1037-1 expressing cytb with alanine at codon 143 assessed as reduction in spore germination
[36] = tested on: Cercospora beticola; experiment: Antifungal activity against Cercospora beticola isolate 11-1004-1 expressing cytb with alanine at codon 143 assessed as reduction in spore germination
[37] = tested on: Cercospora beticola; experiment: Antifungal activity against Cercospora beticola isolate 11-1003-2 expressing cytb with alanine at codon 143 assessed as reduction in spore germination
[38] = tested on: Cercospora beticola; experiment: Antifungal activity against Cercospora beticola isolate 11-1038-1 expressing cytb with alanine at codon 143 assessed as reduction in spore germination
[39] = tested on: Cercospora beticola; experiment: Antifungal activity against Cercospora beticola isolate 98-101-5-M expressing cytb with glycine at codon 143 assessed as reduction in spore germination
[40] = tested on: Cercospora beticola; experiment: Antifungal activity against Cercospora beticola isolate 11-1041-1 expressing cytb with alanine at codon 143 assessed as reduction in spore germination
[41] = tested on: Cercospora beticola; experiment: Antifungal activity against Cercospora beticola isolate 11-1035-2 expressing cytb with alanine at codon 143 assessed as reduction in spore germination
[42] = tested on: Cercospora beticola; experiment: Antifungal activity against Cercospora beticola isolate 98-13-M expressing cytb with glycine at codon 143 assessed as reduction in spore germination
[43] = tested on: Cercospora beticola; experiment: Antifungal activity against Cercospora beticola isolate 11-1026-2 expressing cytb with alanine at codon 143 assessed as reduction in spore germination
[44] = tested on: Cercospora beticola; experiment: Antifungal activity against Cercospora beticola isolate 11-1046-1 expressing cytb with alanine at codon 143 assessed as reduction in spore germination
[45] = tested on: Cercospora beticola; experiment: Antifungal activity against Cercospora beticola isolate 11-1037-2 expressing cytb with alanine at codon 143 assessed as reduction in spore germination
[46] = tested on: Cercospora beticola; experiment: Antifungal activity against Cercospora beticola isolate 11-1022-2 expressing cytb with alanine at codon 143 assessed as reduction in spore germination
[47] = tested on: Cercospora beticola; experiment: Antifungal activity against Cercospora beticola isolate 11-1040-2 expressing cytb with alanine at codon 143 assessed as reduction in spore germination
[48] = tested on: Cercospora beticola; experiment: Antifungal activity against Cercospora beticola isolate 11-1036-1 expressing cytb with alanine at codon 143 assessed as reduction in spore germination
[49] = tested on: Cercospora beticola; experiment: Antifungal activity against Cercospora beticola isolate 11-1044-2 expressing cytb with alanine at codon 143 assessed as reduction in spore germination

Compound: COC(=O)N(OC)c1ccccc1COc1ccn(-c2ccc(Cl)cc2)n1 [PYRACLOSTROBIN]
- EC50 [1]: 5.55 mg/L (≈ 14.3 µM)
- EC50 [2]: 7.15 mg/L (≈ 18.4 µM)
- EC50 [3]: 32.6 mg/L (≈ 84.1 µM)
- EC50 [4]: 4.53 mg/L (≈ 11.7 µM)
- EC50 [5]: 0.001 mg/L (≈ 0.00258 µM)
- EC50 [6]: 47.4 mg/L (≈ 122 µM)
- EC50 [7]: 3.24 mg/L (≈ 8.35 µM)
- EC50 [8]: 4.82 mg/L (≈ 12.4 µM)
- EC50 [9]: 0.001 mg/L (≈ 0.00258 µM)
- EC50 [10]: 0.001 mg/L (≈ 0.00258 µM)
- EC50 [11]: 7.86 mg/L (≈ 20.3 µM)
- EC50 [12]: 8.79 mg/L (≈ 22.7 µM)
- EC50 [13]: 9.54 mg/L (≈ 24.6 µM)
- EC50 [14]: 51.7 mg/L (≈ 133 µM)
- EC50 [15]: 31.4 mg/L (≈ 80.9 µM)
- EC50 [16]: 25.9 mg/L (≈ 66.9 µM)
- EC50 [17]: 0.001 mg/L (≈ 0.00258 µM)
- EC50 [18]: 26.2 mg/L (≈ 67.6 µM)
- EC50 [19]: 0.001 mg/L (≈ 0.00258 µM)
- EC50 [20]: 5.03 mg/L (≈ 13 µM)
- EC50 [21]: 4.12 mg/L (≈ 10.6 µM)
- EC50 [22]: 14.3 mg/L (≈ 36.8 µM)
- EC50 [23]: 72.2 mg/L (≈ 186 µM)
- EC50 [24]: 16.1 mg/L (≈ 41.5 µM)
- EC50 [25]: 46 mg/L (≈ 119 µM)
- EC50 [26]: 0.001 mg/L (≈ 0.00258 µM)
- EC50 [27]: 4.78 mg/L (≈ 12.3 µM)
- EC50 [28]: 16.9 mg/L (≈ 43.6 µM)
- EC50 [29]: 12 mg/L (≈ 31 µM)
- EC50 [30]: 0.003 mg/L (≈ 0.00774 µM)
- EC50 [31]: 16.2 mg/L (≈ 41.9 µM)
- EC50 [32]: 29.7 mg/L (≈ 76.5 µM)
- EC50 [33]: 2.1 mg/L (≈ 5.41 µM)
- EC50 [34]: 20.4 mg/L (≈ 52.7 µM)
- EC50 [35]: 40.9 mg/L (≈ 105 µM)
- EC50 [36]: 5.34 mg/L (≈ 13.8 µM)
- EC50 [37]: 0.915 mg/L (≈ 2.36 µM)
- EC50 [38]: 39.9 mg/L (≈ 103 µM)
- EC50 [39]: 0.001 mg/L (≈ 0.00258 µM)
- EC50 [40]: 4.55 mg/L (≈ 11.7 µM)
- EC50 [41]: 31 mg/L (≈ 80 µM)
- EC50 [42]: 0.006 mg/L (≈ 0.0155 µM)
- EC50 [43]: 7.56 mg/L (≈ 19.5 µM)
- EC50 [44]: 41.7 mg/L (≈ 108 µM)
- EC50 [45]: 5.92 mg/L (≈ 15.3 µM)
- EC50 [46]: 6.37 mg/L (≈ 16.4 µM)
- EC50 [47]: 22.3 mg/L (≈ 57.6 µM)
- EC50 [48]: 29.7 mg/L (≈ 76.5 µM)
- EC50 [49]: 5.23 mg/L (≈ 13.5 µM)
